According to patent publication US7335723B2, “Melanin-concentrating hormone antagonists” (priority 2001, dated 2008):
Where a SMILES comes first, the peptide text is derived from it. Bridges are numbered along the chain shown (N, C = ends). [ ]: non-standard residue; d: D form. The star is where a group is joined. Pentanoyl(5-guanidino) = NC(N)=NCCCCC(=O)*; dNle = CCCC[C@@H](N)C(=O)O; Nle = CCCC[C@H](N)C(=O)O; Abu = CC[C@H](N)C(=O)O; Ava = NCCCCC(=O)O

Columns and labels:
rat MCH-1R [1] = molecular target: T1, rat MCH-1R (Rattus norvegicus, UniProt P97639); assay: Antagonist assay, 293-AEQ17 cells expressing rat MCH-1R; type: cell-based; parameters: expressed in transfected cells; host or cells: 293-AEQ17 (aequorin-expressing HEK-293 reporter line); details: for Kb: determined per Trends in Pharmacol. Sci. 14:237-239, 1993
T1 sequence (P97639 whole entry): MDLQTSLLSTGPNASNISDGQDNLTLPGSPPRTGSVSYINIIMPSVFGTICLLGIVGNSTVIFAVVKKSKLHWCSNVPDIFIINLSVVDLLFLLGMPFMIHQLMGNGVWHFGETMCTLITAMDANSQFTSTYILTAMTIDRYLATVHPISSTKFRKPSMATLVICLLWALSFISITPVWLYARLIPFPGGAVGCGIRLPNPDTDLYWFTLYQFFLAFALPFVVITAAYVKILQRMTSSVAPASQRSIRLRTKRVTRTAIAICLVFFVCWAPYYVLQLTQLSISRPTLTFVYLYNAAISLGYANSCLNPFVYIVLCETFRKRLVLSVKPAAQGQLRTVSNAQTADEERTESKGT
Procedure: Cells were grown in DMEM (high glucose) supplemented with 10% FBS (Hyclone), 500 μg/ml G418, 200 μg/ml hygromycin and 25 mM HEPES in T75 flasks.
The assay itself involved charging apoaequorin with coelenterazine cp(Molecular Probes, C-14260) and was performed as follows:
1. Confluent T75 flasks are rinsed 1× with 12 ml Hams F12 medium+300 μM glutathione+0.1% FBS.
2. The cells were charged by adding 8 ml Hams F12+0.1% FBS+300 μM glutathione+10 μM coelenterazine, incubate at 37° C. for 1 hour.
4. ECB (6 ml) is added to the flask and the cells are dissociated with a rubber-tipped scraper, centrifuged for 5 minutes at 2500 rpm and the cell pellet resuspended in 5 ml ECB. The cells are counted and diluted to 5×10^5/ml.
Binding and agonist activity at the MCH-1R and MCH-2R was determined as described in Examples 2 and 3. Antagonist IC50 was determined as described in Example 4. Kb was determined using the procedures described in Trends in Pharmacol. Sci. 14:237-239, 1993.

human MCH-2R = human MCH-2R (Homo sapiens, UniProt Q969V1); assay: Aequorin bioluminescence functional assay, MCH-2R agonist activity; details: for MCH-2R Agonist Activation %: 293-AEQ17 cells expressing human MCH-2R
Chain of human MCH-2R (Q969V1 whole entry): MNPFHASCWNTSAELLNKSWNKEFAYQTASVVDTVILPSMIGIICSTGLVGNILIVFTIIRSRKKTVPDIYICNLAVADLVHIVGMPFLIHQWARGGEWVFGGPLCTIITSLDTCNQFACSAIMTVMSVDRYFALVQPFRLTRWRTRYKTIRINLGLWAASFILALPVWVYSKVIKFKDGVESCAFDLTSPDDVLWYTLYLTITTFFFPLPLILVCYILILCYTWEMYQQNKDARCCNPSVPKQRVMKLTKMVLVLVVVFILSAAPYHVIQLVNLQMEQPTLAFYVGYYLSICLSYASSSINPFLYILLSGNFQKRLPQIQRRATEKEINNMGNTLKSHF

human MCH-1R = human MCH-1R (Homo sapiens, UniProt Q99705); assay: MCH-1R binding assay, inhibition of [125I]-human MCH binding to membranes
Chain of human MCH-1R (Q99705 whole entry): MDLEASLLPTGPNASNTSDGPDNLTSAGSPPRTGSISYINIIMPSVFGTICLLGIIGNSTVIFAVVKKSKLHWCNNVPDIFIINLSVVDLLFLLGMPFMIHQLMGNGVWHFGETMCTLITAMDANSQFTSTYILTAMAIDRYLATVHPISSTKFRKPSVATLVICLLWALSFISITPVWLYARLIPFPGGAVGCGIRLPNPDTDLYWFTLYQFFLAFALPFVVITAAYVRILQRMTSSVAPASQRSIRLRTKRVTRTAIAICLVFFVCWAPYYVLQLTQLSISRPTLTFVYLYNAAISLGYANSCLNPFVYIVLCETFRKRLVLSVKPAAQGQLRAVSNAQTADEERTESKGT

rat MCH-1R [2] = molecular target: T1, rat MCH-1R; assay: Aequorin bioluminescence functional assay, MCH-1R agonist activity; details: for MCH-1R Agonist Activation %: 293-AEQ17 cells expressing rat MCH-1R

Structure (SMILES)	IC50 (rat MCH-1R [1])	Kb (rat MCH-1R [1])	EC50 (human MCH-2R)	MCH-2R Agonist Activation % (human MCH-2R)	IC50 (human MCH-1R)	EC50 (rat MCH-1R [2])	MCH-1R Agonist Activation % (rat MCH-1R [2])
CSCC[C@@H]1NC(=O)[C@@H](NC(=O)CCCCNC(=N)N)CSSC[C@@H](C(N)=O)NC(=O)CCCCNC(=O)CCCCNC(=O)[C@H](Cc2ccc(O)cc2)NC(=O)[C@H](C)NC(=O)[C@H](CCCNC(=N)N)NC(=O)CNC(=O)[C@H](CC(C)C)NC1=O [SEQ. ID. NO. 20] ({Pentanoyl(5-guanidino)}-CMLGRAY[Ava][Ava]C-NH2; disulfide 1-10; C-terminus assumed)	4.7 nM	2 nM	> 10000 nM	38%	29 nM	> 10000 nM	3.4%
CSCC[C@@H]1NC(=O)[C@@H](NC(=O)CCCCNC(=N)N)CSSC[C@@H](C(N)=O)NC(=O)CCCCNC(=O)CCCCNC(=O)[C@H](Cc2ccc(O)cc2)NC(=O)[C@H](C(C)C)NC(=O)[C@H](CCCNC(=N)N)NC(=O)CNC(=O)[C@H](CC(C)C)NC1=O [SEQ. ID. NO. 11]	2.9 nM	1.25 nM	> 10000 nM	91%	3 nM	> 10000 nM	3%
CCCC[C@@H]1NC(=O)[C@@H](NC(=O)CCCCNC(=N)N)CSSC[C@@H](C(N)=O)NC(=O)CCCCNC(=O)CCCCNC(=O)[C@H](Cc2ccc(O)cc2)NC(=O)[C@H](C(C)C)NC(=O)[C@H](CCCNC(=N)N)NC(=O)CNC(=O)[C@H](CC(C)C)NC1=O [SEQ. ID. NO. 16] ({Pentanoyl(5-guanidino)}-C[Nle]LGRVY[Ava][Ava]C-NH2; disulfide 1-10; C-terminus assumed)	13.8 nM	6 nM	> 10000 nM	59%	11 nM	> 10000 nM	3%
CC(C)C[C@@H]1NC(=O)[C@H](C)NC(=O)[C@@H](NC(=O)CCCCNC(=N)N)CSSC[C@@H](C(N)=O)NC(=O)CCCCNC(=O)CCCCNC(=O)[C@H](Cc2ccc(O)cc2)NC(=O)[C@H](C(C)C)NC(=O)[C@H](CCCNC(=N)N)NC(=O)CNC1=O [SEQ. ID. NO. 19] ({Pentanoyl(5-guanidino)}-CALGRVY[Ava][Ava]C-NH2; disulfide 1-10 (inferred); C-terminus assumed)	67 nM	29 nM	> 10000 nM	45%	140 nM	> 10000 nM	–
CSCC[C@@H]1NC(=O)[C@@H](NC(=O)CCCCNC(=N)N)CSSC[C@@H](C(N)=O)NC(=O)CCNC(=O)CCNC(=O)[C@H](Cc2ccc(O)cc2)NC(=O)[C@H](C(C)C)NC(=O)[C@H](CCCNC(=N)N)NC(=O)CNC(=O)[C@H](CC(C)C)NC1=O [SEQ. ID. NO. 14]	6.8 nM	3 nM	> 10000 nM	32%	176 nM	> 10000 nM	3.6%
CC[C@@H]1NC(=O)[C@@H](NC(=O)CCCCNC(=N)N)CSSC[C@@H](C(N)=O)NC(=O)CCCCNC(=O)CCCCNC(=O)[C@H](Cc2ccc(O)cc2)NC(=O)[C@H](C(C)C)NC(=O)[C@H](CCCNC(=N)N)NC(=O)CNC(=O)[C@H](CC(C)C)NC1=O [SEQ. ID. NO. 17] ({Pentanoyl(5-guanidino)}-C[Abu]LGRVY[Ava][Ava]C-NH2; disulfide 1-10; C-terminus assumed)	–	–	> 10000 nM	7%	830 nM	> 10000 nM	3%
CSCC[C@@H]1NC(=O)[C@@H](NC(=O)CCCCNC(=N)N)CSSC[C@@H](C(N)=O)NC(=O)[C@@H]2CCCN2C(=O)[C@H](CCCNC(=N)N)NC(=O)[C@H](Cc2ccc(O)cc2)NC(=O)[C@H](C(C)C)NC(=O)[C@H](CCCNC(=N)N)NC(=O)CCCCNC(=O)CCCCNC1=O [SEQ. ID. NO. 5] ({Pentanoyl(5-guanidino)}-CM[Ava][Ava]RVYRPC-NH2; disulfide 1-10 (inferred); C-terminus assumed)	–	–	> 10000 nM	31%	6.3 nM	380 nM	10%
CSCC[C@@H]1NC(=O)[C@H](NC(=O)[C@H](CCCNC(=N)N)NC(C)=O)CSSC[C@@H](C(N)=O)NC(=O)CCCCNC(=O)CCCCNC(=O)[C@H](Cc2ccc(O)cc2)NC(=O)[C@H](C(C)C)NC(=O)[C@H](CCCNC(=N)N)NC(=O)CNC(=O)[C@H](CC(C)C)NC1=O [SEQ. ID. NO. 24] (Ac-R[dC]MLGRVY[Ava][Ava]C-NH2; disulfide 2-11; C-terminus assumed)	–	–	> 10000 nM	17%	350 nM	> 10000 nM	3%

The next lines start with the values.

IC50 (rat MCH-1R [1])	Kb (rat MCH-1R [1])	EC50 (human MCH-2R)	MCH-2R Agonist Activation % (human MCH-2R)	IC50 (human MCH-1R)	EC50 (rat MCH-1R [2])	MCH-1R Agonist Activation % (rat MCH-1R [2])	Structure (SMILES)
5.4 nM	2.4 nM	> 10000 nM	91%	28 nM	> 10000 nM	3%	CCCC[C@H]1NC(=O)[C@H](CC(C)C)NC(=O)[C@H](CCSC)NC(=O)[C@@H](NC(=O)CCCCNC(=N)N)CSSC[C@@H](C(N)=O)NC(=O)CCCCNC(=O)CCCCNC(=O)[C@H](Cc2ccc(O)cc2)NC(=O)[C@H](C(C)C)NC(=O)[C@H](CCCNC(=N)N)NC1=O [SEQ. ID. NO. 27] ({Pentanoyl(5-guanidino)}-CML[dNle]RVY[Ava][Ava]C-NH2; disulfide 1-10; C-terminus assumed)
56 nM	24 nM	> 10000 nM	91%	62 nM	> 10000 nM	3%	CSCC[C@@H]1NC(=O)[C@@H](NC(=O)CCCCNC(=N)N)CSSC[C@@H](C(N)=O)NC(=O)CCCCNC(=O)CCCCNC(=O)[C@H](Cc2ccc(O)cc2)NC(=O)[C@H](C(C)C)NC(=O)[C@H](CCCNC(=N)N)NC(=O)CCCCNC(=O)CCCCNC1=O [SEQ. ID. NO. 32] ({Pentanoyl(5-guanidino)}-CM[Ava][Ava]RVY[Ava][Ava]C-NH2; disulfide 1-10; C-terminus assumed)
13.8 nM	6 nM	> 10000 nM	28%	135 nM	> 10000 nM	2%	CSCC[C@@H]1NC(=O)[C@@H](NC(=O)[C@@H](CCCNC(=N)N)NC(C)=O)CSSC[C@@H](C(N)=O)NC(=O)CCCCNC(=O)CCCCNC(=O)[C@H](Cc2ccc(O)cc2)NC(=O)[C@H](C(C)C)NC(=O)[C@H](CCCNC(=N)N)NC(=O)CCCCNC(=O)CCCCNC1=O [SEQ. ID. NO. 33] (Ac-[dR]CM[Ava][Ava]RVY[Ava][Ava]C-NH2; disulfide 2-11 (inferred); C-terminus assumed)
–	–	> 10000 nM	25%	> 1000 nM	> 10000 nM	0.1%	CCCC[C@@H]1NC(=O)[C@@H](NC(=O)CCCCNC(=N)N)CSSC[C@@H](C(=O)O)NC(=O)CCCCNC(=O)CCCCNC(=O)[C@H](Cc2ccc(O)cc2)NC(=O)[C@H](C)NC(=O)[C@H](CCCNC(=N)N)NC(=O)CCCCNC(=O)CCCCNC1=O [SEQ. ID. NO. 35] ({Pentanoyl(5-guanidino)}-C[Nle][Ava][Ava]RAY[Ava][Ava]C-OH; disulfide 1-10)
